Experimental data taken from US20250230193A1, “CYCLIC COMPOUND HAVING SELECTIVE KRAS INHIBITORY EFFECT ON HRAS AND NRAS” (CHUGAI SEIYAKU KABUSHIKI KAISHA, priority 2022, published 2025).
*1 amine or outer side, *2 acyl side, *3 side chain or, on linkers, in order; H or OH if unused. Where a SMILES comes first, the peptide text is derived from it. Bridges are numbered along the chain shown (N, C = ends). [ ]: non-standard residue; d: D form. The star is where a group is joined. hPhe(3-Cl-4-CF3) = N[C@@H](CCc1ccc(C(F)(F)F)c(Cl)c1)C(=O)O; NPrPhe(4-CF3) = CCCN[C@@H](Cc1ccc(C(F)(F)F)cc1)C(=O)O; X10 = CCCN([C@@H](Cc1ccc(F)cc1)C(=O)[*:2])[*:1]; NMeGly(cPent) = CN[C@H](C(=O)O)C1CCCC1; NMeNva(3-Et) = CCC(CC)[C@H](NC)C(=O)O; Hyp = O=C(O)[C@@H]1C[C@@H](O)CN1; NMeD = CN[C@@H](CC(=O)O)C(=O)O; NMeL = CN[C@@H](CC(C)C)C(=O)O; NMeNva = CCC[C@H](NC)C(=O)O; Morpholide = C1CN(*)CCO1; NMeA = CN[C@@H](C)C(=O)O; Ac5c = NC1(C(=O)O)CCCC1; Aze = O=C(O)[C@@H]1CCN1; Ac4c = NC1(C(=O)O)CCC1; Sar = CNCC(=O)O

Legend:
[1] = target: GDP-bound HRAS wild-type protein (Homo sapiens, UniProt P01112); assay: Binding to HRAS by surface plasmon resonance (SPR), Single Cycle Kinetics; conditions: SPR
GDP-bound HRAS wild-type protein, sequence (P01112 whole entry): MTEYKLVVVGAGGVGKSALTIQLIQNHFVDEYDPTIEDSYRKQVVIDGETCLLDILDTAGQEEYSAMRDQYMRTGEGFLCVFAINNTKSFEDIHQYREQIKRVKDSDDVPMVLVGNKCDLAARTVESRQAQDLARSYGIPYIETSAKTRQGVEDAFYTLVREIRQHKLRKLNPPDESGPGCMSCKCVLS

[2] = target: GDP-bound NRAS wild-type protein (Homo sapiens, UniProt P01111); assay: Binding to NRAS by surface plasmon resonance (SPR), Single Cycle Kinetics; conditions: SPR
GDP-bound NRAS wild-type protein, sequence (P01111 whole entry): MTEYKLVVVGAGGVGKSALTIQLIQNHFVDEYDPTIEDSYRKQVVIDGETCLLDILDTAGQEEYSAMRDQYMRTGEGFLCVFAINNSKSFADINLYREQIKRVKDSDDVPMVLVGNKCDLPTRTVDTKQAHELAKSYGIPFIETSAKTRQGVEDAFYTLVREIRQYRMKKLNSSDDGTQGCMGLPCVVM

[3] = GDP-bound HRAS wild-type vs GDP-bound KRAS wild-type
[4] = GDP-bound NRAS wild-type vs GDP-bound KRAS wild-type

For CCC[C@H]1C(=O)N[C@@H]([C@@H](C)CC)C(=O)N(C)[C@@H](C)C(=O)N2CC[C@H]2C(=O)N(CCC)[C@@H](Cc2ccc(C(F)(F)F)cc2)C(=O)N(C)CC(=O)N[C@@H](CCc2ccc(C(F)(F)F)c(Cl)c2)C(=O)N2CCC[C@H]2C(=O)NC2(CCC2)C(=O)N(C)[C@@H](C(CC)CC)C(=O)N(C)[C@H](C(=O)N2CCOCC2)CC(=O)N1C [PP1959] ([NMeNva]I[NMeA][Aze][NPrPhe(4-CF3)][Sar][hPhe(3-Cl-4-CF3)]P[Ac4c][NMeNva(3-Et)][NMeD]-Morpholide; lactam N-11), the “HRAS/KRAS (ratio of KD value for HRAS to KD value for KRAS)” value [1, 3] was “B (a compound having 3 or more and less than 10 is denoted as B)” and the “NRAS/KRAS (ratio of KD value for NRAS to KD value for KRAS)” value [2, 4] was “C (A compound having a KD ratio of 0.1 or more and less than 3 is denoted as C)”.
In the case of CC[C@H](C)[C@@H]1NC(=O)[C@H](C)N(C)C(=O)C[C@@H](C(=O)N2CCOCC2)N(C)C(=O)[C@H](C2CCCC2)N(C)C(=O)C2(CCC2)NC(=O)[C@@H]2CC(F)(F)CN2C(=O)[C@H](CCc2cc(F)c(C(F)(F)F)c(F)c2)NC(=O)CN(C)C(=O)[C@H](Cc2ccc(C(F)(F)F)cc2)N2CCCC[C@@H](C2=O)N(C)C(=O)CN(C)C1=O [PP0582], the “HRAS/KRAS (ratio of KD value with respect to GDP-bound HRAS wild-type protein to KD value with respect to KRAS)” value [1] is reported as “B (a compound having 3 or more and less than 10 is denoted as B)” and the “NRAS/KRAS (ratio of KD value with respect to GDP-bound NRAS wild-type protein to KD value with respect to KRAS)” value [2] is reported as “C (A compound having a KD ratio of 0.1 or more and less than 3 is denoted as C)”.
In the case of CCCN1C(=O)[C@@H]2CCN2C(=O)[C@H](C)N(C)C(=O)[C@H]([C@@H](C)CC)NC(=O)[C@H](CC(C)C)N(C)C(=O)C[C@@H](C(=O)N(C)C)NC(=O)[C@H](C2CCCC2)N(C)C(=O)C2(CCC2)NC(=O)[C@@H]2C[C@@H](OCC)CN2C(=O)[C@H](CCc2ccc(C(F)(F)F)c(Cl)c2)NC(=O)CN(C)C(=O)[C@@H]1Cc1ccc(C(F)(F)F)cc1 [PP0384] ([NMeL]I[NMeA][Aze][NPrPhe(4-CF3)][Sar][hPhe(3-Cl-4-CF3)][Hyp](Et)[Ac4c][NMeGly(cPent)]D-NMe2; lactam N-11), the “HRAS/KRAS (ratio of KD for GDP-bound HRAS wild-type to KD for KRAS)” value [1] is reported as “B (a compound having 3 or more and less than 10 is denoted as B)” and the “NRAS/KRAS (ratio of KD for GDP-bound NRAS wild-type to KD for KRAS)” value [2] is reported as “C (A compound having a KD ratio of 0.1 or more and less than 3 is denoted as C)”.
With CCC[C@H]1C(=O)N[C@@H]([C@@H](C)CC)C(=O)N(C)CC(=O)N(C)[C@H]2C/C=C\CCN(C2=O)[C@@H](Cc2ccc(C)cc2)C(=O)N(C)CC(=O)N[C@@H](CCc2cc(F)c(C(F)(F)F)c(F)c2)C(=O)N2C[C@H](OCC)C[C@H]2C(=O)N(C)C2(CCC2)C(=O)N(C)[C@@H](C2CCCC2)C(=O)N(C)[C@H](C(=O)N(C)C)CC(=O)N1C [PP1793] the “HRAS/KRAS (ratio of KD value for HRAS to KD value for KRAS)” value [1, 3] was “B (a compound having 3 or more and less than 10 is denoted as B)” and the “NRAS/KRAS (ratio of KD value for NRAS to KD value for KRAS)” value [2, 4] was “A (a compound having 10 or more and less than 20 is denoted as A)”.
For CCC[C@H]1C(=O)N[C@@H]([C@@H](C)CC)C(=O)N(C2CC2)CC(=O)N(C)[C@H]2C/C=C\CCN(C2=O)[C@@H](Cc2ccc(C)cc2)C(=O)N(C)CC(=O)N[C@@H](CCc2ccc(C(F)(F)F)c(OC)c2)C(=O)N2C[C@H](OCC)C[C@H]2C(=O)N(C)C2(CCC2)C(=O)N(C)[C@@H](C2CCCC2)C(=O)N(C)[C@H](C(=O)N2CCCC2)CC(=O)N1C [PP3098, (2S,8S,12R,14S,20S,23S,27S,30S,36S,38Z)-20-cyclopentyl-32-cyclopropyl-12-ethoxy-8-[2-[3-methoxy-4-(trifluoromethyl)phenyl]ethyl]-4,16,19,22,26,35-hexamethyl-30-[(1S)-1-methylpropyl]-27-propyl-2-(p-tolylmethyl)-23-(pyrrolidine-1-carbonyl)spiro[1,4,7,10,16,19,22,26,29,32,35-undecazatricyclo[34.5.1.0^10,14]dotetracont-38-ene-17,1′-cyclobutane]-3,6,9,15,18,21,25,28,31,34,42-undecone], the “HRAS/KRAS (ratio of KD value with respect to GDP-bound HRAS wild-type protein to KD value with respect to KRAS)” value ([1]; GDP-bound wild-type proteins) was “A (a compound having 10 or more and less than 20 is denoted as A)” and the “NRAS/KRAS (ratio of KD value with respect to GDP-bound NRAS wild-type protein to KD value with respect to KRAS)” value ([2]; GDP-bound wild-type proteins) was “A (a compound having 10 or more and less than 20 is denoted as A)”.
CCOC[C@H]1C(=O)N[C@@H]([C@@H](C)CC)C(=O)N(C)CC(=O)N(C)[C@H]2C/C=C\CCN(C2=O)[C@@H](Cc2ccc(C)cc2)C(=O)N(C)CC(=O)N[C@@H](CCc2ccc(C(F)(F)F)c(OC)c2)C(=O)N2C[C@@H](C)C[C@H]2C(=O)NC2(CC(C)(C)C2)C(=O)N(C)[C@@H](C2CCCC2)C(=O)N(C)[C@H](C(=O)N(CC)CC)CC(=O)N1C [PP2405] was tested, and the “HRAS/KRAS (ratio of KD value with respect to HRAS to KD value with respect to KRAS)” value [1, 3] was “A (a compound having 10 or more and less than 20 is denoted as A)” and the “NRAS/KRAS (ratio of KD value with respect to NRAS to KD value with respect to KRAS)” value [2, 4] was “A (a compound having 10 or more and less than 20 is denoted as A)”.
For CCCN1C(=O)CN(C)C(=O)CN(C)C(=O)[C@H]([C@@H](C)CC)NC(=O)[C@H](CC(C)C)N(C)C(=O)C[C@@H](C(=O)N2CCOCC2)N(C)C(=O)[C@H](C2CCCC2)N(C)C(=O)C2(CCCC2)NC(=O)[C@@H]2CCCN2C(=O)[C@H](CCc2ccc(C(F)(F)F)c(Cl)c2)NC(=O)CN(C)C(=O)[C@@H]1Cc1ccc(F)cc1 [PP0214] ([NMeL]I[Sar][Sar][X10][Sar][hPhe(3-Cl-4-CF3)]P[Ac5c][NMeGly(cPent)][NMeD]-Morpholide; lactam N-11), the “HRAS/KRAS (ratio of KD for GDP-bound HRAS wild-type to KD for KRAS)” value [1] was “C (A compound having a KD ratio of 0.1 or more and less than 3 is denoted as C)” and the “NRAS/KRAS (ratio of KD for GDP-bound NRAS wild-type to KD for KRAS)” value [2] was “B (a compound having 3 or more and less than 10 is denoted as B)”.
